Columns and labels:
human osteoclasts = experiment: Human osteoclast-mediated bone resorption assay; format: cell-based; conditions: 24 hours, bovine cortical bone particles
Protocol: The isolation of disaggregated human osteoclasts from fresh osteoclastoma tissue and the in vitro human osteoclast resorption assay were performed according to James, J. Bone Min. Res., Vol. 11, pp. 1453-1460. Briefly, human osteoclasts were seeded onto bovine cortical bone particles with compound or vehicle for 24 hours at 37° C. The culture media were then removed and the levels of the carboxy-terminal peptide of the α1 chain of human type I collagen were quantified as a biochemical readout of resorption, using a competitive binding enzyme linked immunosorbant assay (ELISA) (19) (Osteometer A/S, Rodovre, Denmark). The results are expressed as percent inhibition of resorption compared to supernatants derived from osteoclasts cultured in vehicle without inhibitor. IC50 values are determined from the resultant dose response curves.

osteopenic ovx rats [1] = experiment: Ovariectomized rat Study 2: calcilytic plus/minus 17β estradiol, histology and histomorphometry of proximal tibia; format: in vivo; conditions: Study 2, proximal tibia, static histomorphometry, vs ovx group
Protocol: Animals were prepared and monitored as described above. […] Dosing continued for 5 weeks at which point the animals were sacrificed and the tibiae were collected for histological analysis. Bone samples were dehydrated through increasing concentrations of ethanol, defatted in acetone and embedded in methyl methacrylate (Polysciences, Inc., Warrington, Pa.). Longitudinal undecalcified sections (5 μm) sections of the proximal tibial were cut on a Leica microtome (S[…]); the tissue blocks had been prestained with Villanueva stain. Histomorphometric analysis was carried out using an Osteomeasure system (OsteoMetrics Incorpotated), without knowledge of group allocation. Measurements within the tibial metaphysis were restricted to a mean tissue area of approximately 8 mm^2 beginning 1 mm below the growth plate. Primary measurements included area of bone and marrow (mm^2), bone area (mm^2), perimeter of bone (mm), single and double-labelled perimeter (sL.Pm, dL.Pm, m), osteoid perimeter (O.Pm, m) and eroded perimeter (Er.P, m). […] Statistical analysis was assessed by a two sided t-test.

[2] = s.c. infusion 40 and 80 ug/kg/day over periods of 2 hours or more; cited from earlier work
osteopenic ovx rats [3] = experiment: Ovariectomized rat Study 1: bone mineral density by DXA; format: in vivo; conditions: Study 1, ovx rats, 5 ug/kg daily PTH s.c., eight weeks
Excerpt: (§1) Seven month old virgin Sprague Dawley female rats were subjected to bilateral ovariectomy or sham surgery and the animals then held for a period of three months to allow the development of osteopenia. At that time a single sham group (n=10) and three groups of ovariectomized (ovx) animals (n=10-14) were assigned. The ovx groups were selected such that there was no significant difference in bone mineral density (“BMD”) of the lumbar spine, proximal tibia or distal femur between groups. Groups consisted of sham and ovx controls treated with dose vehicle (20% aqueous encapsin) and ovx groups treated with either N-[(2R-Hydroxy-3-[(3-chloro-2-cyano)phenoxy-propyl]-1,1-dimethyl-2-(2-naphthyl)ethyl amine hydrochloride (“calcilytic administered”) ([…] body weight daily p.o.) or rat PTH 1-34 (5 ug/kg body weight daily s.c.).
(§2) During the study blood samples were drawn for determination of circulating PTH and osteocalcin. BMD was determined by DXA (QDR4500 Hologic, Waltham, Mass.) prior to treatment and at weeks 4 and 8. At term tibiae were removed for histological analysis. All animals received tetracycline 10 and 3 days prior to the start of dosing and calcein (10 mg/kg) 10 and 3 days prior to sacrifice.

[4] = system: primary human osteoblasts; experiment: Osteoblast cAMP production, primary human osteoblasts; format: cell-based; conditions: compound 0.1, 1 and 10 uM, PTH 40 ng/ml positive control
Protocol: (§3) cAMP accumulation was measured in both human TF274 osteoblastic cells (derived by immortalization of human bone marrow stromal cells) see James, supra, and primary human osteoblasts derived from explants of trabecular bone as described in Beresford, Biochim. Biophys. Acta, Vol. 801, pp. 58-65 ([…]). cAMP levels in cell samples were measured using a non-radioactive protocol (Amersham kit). Alkaline phosphatase activity was determined using the standard colorimetric method as described previously in Gowen, Arth. Rheum., Vol. 31, pp. 1500-1507 (1988). N-[(2R-Hydroxy-3-[(3-chloro-2-cyano)phenoxy-propyl]-1,1-dimethyl-2-(2-naphthyl)ethyl amine hydrochloride was tested at 0.1, 1 and 10 uM. PTH 40 ng/ml was used as a positive control.

[5] = system: human TF274 osteoblastic cells; experiment: Osteoblast cAMP production, TF274 cells; format: cell-based; conditions: compound 0.1, 1 and 10 uM, PTH 40 ng/ml positive control
Protocol: as §3

[6] = cited from earlier work
[7] = rats, PTH dose of 80 ug/kg, published studies; cited from earlier work
plasma PTH = experiment: Ovariectomized rat Study 1: circulating PTH levels (RIA); format: in vivo; conditions: Study 1, 5 ug/kg PTH s.c.
Excerpt: as §1, §2
Timed plasma samples were collected relative to administration of compound or PTH. PTH 1-34 was measured by RIA (Nichols Institute Diagnostics, San Juan Capistrano, Calif.). The concentrations of compound in the plasma were quantified by LC/MS/MS (limit of detection 10 ng/ml).

osteopenic ovx rats [8] = experiment: Ovariectomized rat Study 1: dynamic histomorphometry of proximal tibia; format: in vivo
Excerpt: as §1, §2
Bone samples were dehydrated through increasing concentrations of ethanol, defatted in acetone and embedded in methyl methacrylate (Polysciences, Inc., Warrington, Pa.). Longitudinal undecalcified sections (5 μm) sections of the proximal tibial were cut on a Leica microtome (SM2500S); the tissue blocks had been prestained with Villanueva stain. Histomorphometric analysis was carried out using an Osteomeasure system (OsteoMetrics Incorpotated), without knowledge of group allocation. Measurements within the tibial metaphysis were restricted to a mean tissue area of approximately 8 mm^2 beginning 1 mm below the growth plate. Primary measurements included area of bone and marrow (mm^2), bone area (mm^2), perimeter of bone (mm), single and double-labelled perimeter (sL.Pm, dL.Pm, m), osteoid perimeter (O.Pm, m) and eroded perimeter (Er.P, m). Derived indices included trabecular bone volume (% Tb.Ar), trabecular number (Th.N, mm^−1), trabecular thickness (Th.Th, μm), trabecular separation (Th.Sp, μm), bone formation rate, surface referent (BFR/Tb.Pm, μm^3/μm^2/year), BFR/Tb.Ar (bone area referent, %/year), BFR/B.Ar (tissue referent, %/year) and mineral apposition rate (MAR, μm/day), and percent labelled perimeter (% Lp). Statistical analysis was assessed by a two sided t-test.

[9] = clinical, 0.4 ug/kg, 30 minutes after dosing
[10] = Study 1, proximal tibia, vs ovx control, calcilytic 100 mmol/kg p.o. or PTH 5 ug/kg s.c. daily

Molecule: 3,1,1-bis (2-methylpropyl)-4,7,10-trioxo-2,5,6,8,9,12-hexaazatridecanedioate [reference compound]
- IC50 (human osteoclasts): 900 nM

Molecule: C[C@]12CC[C@@H]3c4ccc(O)cc4CC[C@H]3[C@@H]1CC[C@@H]2O [estradiol, 17β estradiol, reference compound]
- % trabecular area (% Tb.Ar.) / ovx-induced bone loss (osteopenic ovx rats [1]): not significantly restored

Molecule: PTH: parathyroid hormone; rat PTH 1-34 s.c. in the rat studies, PTH 40 ng/ml as positive control in osteoblast assays [reference compound]
- adverse effects of prolonged PTH infusion [2]: rapid loss in body weight, hypercalcemia and histological abnormalities in the skeleton
- bone mass (BMD) in the proximal tibia (osteopenic ovx rats [3]): returned to pre-ovx levels
- cAMP levels (basal) [4]: two-fold increase
- cAMP levels (basal) [5]: two-fold increase
- bone mass ([6]; clinical studies, approximate doses of 0.4-0.8 ug/kg body weight): increased bone mass
- circulating levels of PTH 1-34 [6, 9]: approximately 90 pmol/l
- increase in circulating PTH levels [6, 9]: three-fold increase
- circulating level of PTH [7]: 5,000-14,000 pg/ml
- time of return of PTH levels to baseline after dosing (plasma PTH): 2 to 4 h
- PTH levels in animals given PTH (plasma PTH; compared with calcilytic-dosed animals): in the same range
- bone formation and resorption, net bone gain or loss (osteopenic ovx rats [8]; Study 1, overall outcome): increased both resorption and formation, but formation exceeded resorption, resulting in increased bone mass
- bone formation: % labeled perimeter (% L.Pm.) (osteopenic ovx rats [8]; [10]): elevated above the ovx control level
- bone formation: % osteoid perimeter (% Os.Pm) (osteopenic ovx rats [8]; [10]): elevated above the ovx control level

From US20060035927A1, “Calcilytic compounds” (SmithKline Beecham Corporation, priority 1999, published 2006)
